From patent US20230015647A1, “INHIBITORS OF HISTONE DEMETHYLASES (PFI-63 AND PFI-90) FOR THE TREATMENT OF CANCER AND FOR THE INHIBITION OF HISTONE DEMETHYLASE IN CELLS” (The United States of America,as represented by the …, priority 2019, published 2023) come the findings set out here.

“Also recorded” adds a separate entry of the source. Where two headings read alike, the source gives them in different places.

In assay [1] the test system is SCMC cells. Kind of assay: Caspase 3 apoptosis assay in SCMC cells. The class given is cell-based, human. An excerpt: The impact of PFI-63 and PFI-90 on apoptosis in rhabdomyosarcoma cells was investigated by assaying caspase 3 levels in the cells, and by annexin V staining.
Assay [2] has as its system TC-32 Ewing's sarcoma cells. Kind of assay: Cell confluence assay in TC-32 Ewing's sarcoma cells. To be noted: Homo sapiens, TC-32 cells. It counts as cell-based. The procedure:
A cell confluence assay was performed to further assess the cytotoxicity of PFI-63 in OSA-CL osteosarcoma cells. Confluence data was collected via photographic images of cells treated with PFI-63 at the following time points: 24 hours, 48 hours, 72 hours, 96 hours and 120 hours. Exemplary dose response curves at 72 hours are presented as FIGS. 59 and 60 for PFI-63 and PFI-90 respectively.
A similar assay was performed to assess the cytotoxicity of PFI-63 and PFI-90 in TC-32 Ewing's sarcoma cells. Exemplary dose response curves at 72 hours are presented as FIGS. 61 and 62 for PFI-63 and PFI-90 respectively.

Assay [3] has as its target T1, KDM3B (JMJD1B) (Homo sapiens, UniProt Q7LBC6).
T1 construct: The enzymatic activity of each of the full length protein was analyzed using known substrates; purchased Eurofins
Kind of assay: Eurofins histone lysine demethylase panel, enzymatic inhibition, substrate H3K9me1/2(3). It counts as biochemical. The settings on record: KDM3B (JMJD1B) enzymatic activity. Here is the method:
PFI-63 was sent to Eurofins (www.eurofins.com) for direct enzymatic inhibition activity analysis. The enzymatic activity of each of the full length protein was analyzed using known substrates such as methylated lysines. The proteins were treated with various concentrations of PFI-63. As described above, PFI-90 inhibitory activity was determined by Eurofins using enzymatic inhibition activity analysis of a panel of histone demethylases.

For assay [4], the system named is histone H3 methylation. Nature of the assay: Western blot of histone H3 methylation in treated cells. The class given is cell-based. An excerpt: A diagram illustrating this activity is provided as FIG. 26.
Analysis via Western blot confirms that PFI-90 inhibits lysine demethylase activity.
In general terms: Immunoblotting shows a protein as a band on a membrane.

Assay [5] deals with RH4 cells. Kind of assay: Gene set enrichment analysis (GSEA) of RNASeq gene expression. The class given is cell-based, human. The procedure:
Gene set enrichment analyses (GSEA) were performed according to methods known in the art to evaluate […] in cells treated with PFI-63 as compared to control cells. Briefly, gene expression in RH4 cells treated with PFI-63 was assessed by RNASeq, and the results were statistically compared with various pre-existing gene sets. […] The results also indicate that RH4 cells treated with PFI-63 experience upregulation of targets associated with myogenic differentiation and apoptosis (see FIGS. 18 and 19).
GSEA assays like those performed in Example 3 above, were also performed to assess PFI-90. The results for PFI-90 were similar to those obtained for PFI-63. […] The results also indicate that cells treated with PFI-90 experience upregulation of targets associated with myogenic differentiation and apoptosis (see FIGS. 39-40).

Assay [6] deals with RH30.19luc cells. Nature of the assay: CRISPR/Cas9 genome-scale loss of function time course screen (GeCKOv2, TKOv3). It counts as cell-based. To be noted: compared to DMSO. The procedure:
To identify specific proteins targeted by PFI-63, a genome-scale loss of function time course screen was performed in RH30.19luc cells using two CRISPR/Cas9 libraries (GeCKOv2 and TKOv3) with and without treatment with PFI-63.

Assay [7] relates to rhabdomyosarcoma cells. Nature of the assay: Morphological imaging of treated cells. It counts as cell-based. From the text:
Among the 64 compounds identified above, 33 compounds of unknown mechanism of action were identified.

The subject of assay [8] is truncated KDM3B catalytic domain. Kind of assay: CPMG relaxation editing NMR binding assay. From the text:
(§1) A WaterLOGSY assay and a Carr-Purcell Meiboom-Gill (CPMG) based assay were used to investigate protein-ligand binding affinity between PFI-90 and a truncated KDM3B catalytic domain.
CPMG (Carr-Purcell-Meiboom-Gill) Relaxation Editing Proton NMR is another drug-discovery NMR experiment that may be used in conjunction with WaterLOGSY to orthogonally validate the presence of a reversible binding interaction of mild to high affinity from a small molecule to a label-free target. In contrast to WaterLOGSY, all peaks are phased above the X-axis. Instead, this experiment filters out the proportion of peak height that is contributed from the quantity of small molecule bound to a target of high molecular weight (e.g., a protein). Once the attenuation of peak height is equivalent to a 20% reduction, the compound is said to bind, with an increasing ratio of bound to unbound small molecules manifesting in increasing signal attenuation.

For assay [9], the system named is NCI-60 cancer cell line panel. Kind of assay: NCI-60 cancer cell line panel, percentage growth. The class given is cell-based, human. The procedure: This example describes the testing of PFI-90 against the NCI-60 panel. The NCI-60 cancer cell line panel is a collection of 60 human cancer cell lines maintained by the National Cancer Institute (see Shoemaker et al., Nat. Rev. Cancer, 6: 813-823 (2006)). Briefly, the percentage growth of the cancer cells lines was measured in the presence of PFI-90 at various concentrations.

The subject of assay [10] is truncated KDM3B catalytic domain. Nature of the assay: 1D 1H NMR chemical shift perturbation. The class given is binding. The settings on record: 300 uM PFI-90, 12 uM protein, with or without 100 uM 2-OG. An excerpt: For reference, FIG. 63 depicts NMR peaks for PFI-90. While the peaks are complex, all relevant peaks are clearly resolved. FIG. 64 depicts NMR peaks obtained for […] (also called 2-oxoglutaric acid or “2-OG”), a substrate of histone demethylases. 2-OG peaks are easily resolved. FIG. 65 depicts results from a 1D 1H analysis of PFI-90.

Assay [11] has the same test system. Kind of assay: WaterLOGSY NMR binding assay. To be noted: 300 μM; in the presence and in the absence of 2-OG.
Source text: as §1
In traditional proton NMR experiments, a series of peaks are generated that represent the structure of a solitary small molecule, whereas the WaterLOGSY experiment examines the behavior of a small molecule's peaks in the presence of a potential target. This is achieved by observing differences in interaction between a small molecule interacting with water co-occupying a binding cleft on a target as compared to water dispersed freely in solution. The experiment then depicts the ratio of bound to unbound small molecule by phasing proton NMR spectra on the X-axis in opposing directions depending on the magnitude of that ratio (i.e., increasing ratios above 1 will phase positively, decreasing ratios below 1 will phase negatively).

Setting [12] is: 72 hour time point, read-out: IC50.
Setting [13] is: approximate, read-out: IC50 (toxic to Ewing's sarcoma cells).

T1 sequence (Q7LBC6 whole entry): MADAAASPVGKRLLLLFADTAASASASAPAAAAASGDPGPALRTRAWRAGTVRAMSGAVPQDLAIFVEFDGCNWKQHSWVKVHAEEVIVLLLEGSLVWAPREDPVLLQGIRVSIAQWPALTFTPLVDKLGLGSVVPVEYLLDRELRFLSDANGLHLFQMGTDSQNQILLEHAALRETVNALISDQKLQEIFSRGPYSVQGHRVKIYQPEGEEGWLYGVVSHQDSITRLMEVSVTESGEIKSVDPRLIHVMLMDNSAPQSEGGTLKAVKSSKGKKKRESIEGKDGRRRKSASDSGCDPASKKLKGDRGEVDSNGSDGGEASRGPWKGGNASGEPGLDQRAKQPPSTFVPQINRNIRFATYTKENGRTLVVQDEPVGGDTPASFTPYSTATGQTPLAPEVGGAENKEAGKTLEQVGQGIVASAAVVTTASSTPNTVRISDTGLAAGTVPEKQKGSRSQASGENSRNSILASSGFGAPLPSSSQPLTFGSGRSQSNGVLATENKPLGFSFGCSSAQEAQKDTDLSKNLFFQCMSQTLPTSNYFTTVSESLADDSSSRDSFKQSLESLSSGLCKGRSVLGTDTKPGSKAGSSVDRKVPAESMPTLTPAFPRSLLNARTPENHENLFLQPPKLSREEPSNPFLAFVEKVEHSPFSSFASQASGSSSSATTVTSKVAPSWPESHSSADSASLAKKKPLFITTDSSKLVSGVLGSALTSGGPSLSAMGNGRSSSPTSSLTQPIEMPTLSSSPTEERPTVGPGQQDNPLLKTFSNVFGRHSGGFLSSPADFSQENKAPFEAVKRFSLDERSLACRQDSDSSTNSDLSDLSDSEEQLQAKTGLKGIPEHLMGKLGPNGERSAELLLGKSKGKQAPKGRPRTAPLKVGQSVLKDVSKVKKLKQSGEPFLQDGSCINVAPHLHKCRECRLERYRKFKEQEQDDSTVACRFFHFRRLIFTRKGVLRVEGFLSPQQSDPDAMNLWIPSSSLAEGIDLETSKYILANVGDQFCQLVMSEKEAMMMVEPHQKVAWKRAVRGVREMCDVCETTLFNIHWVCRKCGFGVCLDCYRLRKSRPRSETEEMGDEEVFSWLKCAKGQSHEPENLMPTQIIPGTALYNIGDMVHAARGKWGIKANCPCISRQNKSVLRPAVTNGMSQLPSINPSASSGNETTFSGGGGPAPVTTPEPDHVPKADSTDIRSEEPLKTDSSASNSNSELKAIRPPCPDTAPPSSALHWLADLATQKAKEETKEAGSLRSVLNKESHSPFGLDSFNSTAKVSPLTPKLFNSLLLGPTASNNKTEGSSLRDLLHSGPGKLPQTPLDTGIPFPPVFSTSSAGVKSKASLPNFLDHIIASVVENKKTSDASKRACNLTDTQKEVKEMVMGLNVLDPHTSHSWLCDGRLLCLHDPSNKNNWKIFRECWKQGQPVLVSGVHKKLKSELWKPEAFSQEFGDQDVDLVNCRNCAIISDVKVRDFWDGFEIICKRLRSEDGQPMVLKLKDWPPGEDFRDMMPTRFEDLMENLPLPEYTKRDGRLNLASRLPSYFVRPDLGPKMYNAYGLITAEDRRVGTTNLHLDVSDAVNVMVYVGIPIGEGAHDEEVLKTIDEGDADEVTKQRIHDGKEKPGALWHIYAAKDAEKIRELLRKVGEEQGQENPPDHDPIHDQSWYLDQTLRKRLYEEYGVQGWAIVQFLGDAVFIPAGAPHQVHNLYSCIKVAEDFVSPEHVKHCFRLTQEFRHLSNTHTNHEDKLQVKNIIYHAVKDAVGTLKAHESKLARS

Broadly, the IC50 is the concentration that inhibits the measured activity by half. `Cc1cc(C)cc(C(=O)NNC(=O)c2ccccn2)c1` [PFI-63]: the “caspase 3” value in [1] was “increased caspase 3”. In assay [2] (setting [12]), the half-maximal inhibitory concentration (IC50) amounted to 1880 nM. For the same compound, the concentration for half-maximal inhibition (IC50) in [2] (setting [13]) was about 2000 nM. In addition, the IC50 in [3] fell in the range of 2000 to 3000 nM. In assay [4] (treated cells), the “H3K4me3 (Western blot)” value is “global increase”, the “H3K9me3 (Western blot)” value is given as “global increase” and the “H3K27me3 (Western blot)” value is recorded as “global increase”. Also, in [5], the “GSEA: genes that are induced upon KDM3B suppression” value is “upregulated”, the “GSEA: targets associated with apoptosis” value was “upregulation”, the “GSEA: targets associated with myogenic differentiation” value is recorded as “upregulation” and the “GSEA: targets of the PAX3-FOXO1 fusion transcription factor” value is recorded as “downregulated”. Further, in [5], the “GSEA: targets that are upregulated by GSK-J4” value is “upregulated; also recorded: upregulation” and the “GSEA: targets that are upregulated by JIB-04” value is “upregulated; also recorded: upregulation”. Also, in [6], the “synthetic lethality of targets of histone lysine demethylases” value is listed as “synthetically lethal”. Further, the cell morphology entry in [7] is reported as “elongation of cells”.

`O=C(NNc1ccccn1)c1ccccn1` [PFI-90]: in [1], the “caspase 3” value is listed as “increased caspase 3”. The half-inhibitory concentration (IC50) in assay [2] (setting [12]) was 1110 nM; in assay [2] (setting [13]) it was about 1000 nM. The “peak height attenuation (CPMG)” value in [8] (1 of 9 peaks) is recorded as 70%; in [8] (3 of 9 peaks) it was 50%; in [8] (5 out of 9 PFI-90 peaks), “Complete/near complete”. The “binding (CPMG)” value in [8] (in the presence and absence of 2-OG) was “Strong binding”. The cell growth entry was “inhibits cell growth” in assay [9] (CNS cancer cell lines); “inhibits cell growth” in assay [9] (breast cancer cell lines); “inhibits cell growth” in assay [9] (colon cancer cell lines); “slows and/or stops the growth of the cells; also recorded: inhibits cell growth” in assay [9] (leukemia cell lines); “inhibits cell growth” in assay [9] (melanoma cell lines); “inhibits cell growth” in assay [9] (non-small cell lung cancer cell lines). Also, the cell growth entry in [9] (ovarian cancer cell lines) is “inhibits cell growth”; in [9] (prostate cancer cell lines), “inhibits cell growth”; in [9] (renal cancer cell lines), “inhibits growth and leads to cell death; also recorded: inhibits cell growth and induces cell death”. Further, the “chemical shift perturbation upon addition of truncated KDM3B catalytic domain” value in [10] is “not influences by 2-OG presence; also recorded: not influenced by the presence of 2-OG”. For the same compound, the “methylation of histone H3 (Western blot)” value in assay [4] (as the concentration increases) was “also increases”. Further, the “GSEA: genes that are induced upon KDM3B suppression” value in assay [5] is “upregulated”. The “GSEA: targets associated with apoptosis” value in [5] is “upregulation”. Besides, the “GSEA: targets associated with myogenic differentiation” value in assay [5] is recorded as “upregulation”. Also, the “GSEA: targets of the PAX3-FOXO1 fusion transcription factor” value in [5] is reported as “downregulated”. Also, the “binding (WaterLOGSY)” value in assay [11] is given as “found to bind; also recorded: binds”.
